Source: publication PMC11985001, “Melatonin rescues cell respiration impaired by hypoxia/reoxygenation in aortic endothelial cells and affects the mitochondrial bioenergetics targeting the F1FO-ATPase” (Redox Biology, 2025)

Columns and labels:
[1] = target: T1, F1 domain of mitochondrial F1FO-ATPase (F1-ATPase) (Sus scrofa, UniProt K7GLT8+P80021); test: ATP hydrolysis (Pi release) with partially purified F1, […] NBD-Cl; assay type: biochemical
T1 construct: gene ATP5F1B; partially purified F1 domain from swine heart mitochondria; with other subunits of the F1 complex
T1 sequence (K7GLT8 89-570): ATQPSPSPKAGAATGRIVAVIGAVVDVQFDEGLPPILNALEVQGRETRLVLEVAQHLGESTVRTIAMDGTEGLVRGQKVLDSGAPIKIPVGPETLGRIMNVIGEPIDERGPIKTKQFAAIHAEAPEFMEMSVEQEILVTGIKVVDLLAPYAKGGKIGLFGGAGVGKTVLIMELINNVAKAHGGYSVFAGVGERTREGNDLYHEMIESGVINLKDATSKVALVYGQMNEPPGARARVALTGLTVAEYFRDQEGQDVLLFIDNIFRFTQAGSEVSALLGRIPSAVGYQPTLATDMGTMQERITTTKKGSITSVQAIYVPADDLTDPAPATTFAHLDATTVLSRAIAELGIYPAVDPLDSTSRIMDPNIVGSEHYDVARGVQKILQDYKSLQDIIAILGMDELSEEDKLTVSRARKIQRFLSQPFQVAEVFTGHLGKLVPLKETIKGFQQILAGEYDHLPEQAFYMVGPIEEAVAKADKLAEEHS
T1 sequence (P80021 44-553): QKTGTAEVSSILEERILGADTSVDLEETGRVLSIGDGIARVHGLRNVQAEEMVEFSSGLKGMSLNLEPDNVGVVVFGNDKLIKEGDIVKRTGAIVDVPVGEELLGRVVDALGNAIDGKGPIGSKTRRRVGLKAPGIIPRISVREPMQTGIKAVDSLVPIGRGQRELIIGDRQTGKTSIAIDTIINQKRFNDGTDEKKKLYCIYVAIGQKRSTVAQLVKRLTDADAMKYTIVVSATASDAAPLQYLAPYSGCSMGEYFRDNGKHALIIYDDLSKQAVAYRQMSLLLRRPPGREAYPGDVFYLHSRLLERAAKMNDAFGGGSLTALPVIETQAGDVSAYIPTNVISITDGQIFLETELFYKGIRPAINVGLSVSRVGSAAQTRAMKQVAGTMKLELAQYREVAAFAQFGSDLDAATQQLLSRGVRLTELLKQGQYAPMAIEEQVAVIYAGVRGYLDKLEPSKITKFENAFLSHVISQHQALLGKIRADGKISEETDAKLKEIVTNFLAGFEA
T1 sequence (A0A286ZYL7 23-168 partner): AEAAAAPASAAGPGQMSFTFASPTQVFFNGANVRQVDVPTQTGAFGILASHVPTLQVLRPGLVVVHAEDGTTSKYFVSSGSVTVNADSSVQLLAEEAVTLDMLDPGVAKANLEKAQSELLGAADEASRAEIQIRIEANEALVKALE
T1 sequence (A5GFX4 2-51 partner): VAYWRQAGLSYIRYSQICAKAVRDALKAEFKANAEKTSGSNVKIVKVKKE

[2] = target: T2, F1 domain of mitochondrial F1FO-ATPase (Ca2+-activated F1-ATPase) (Sus scrofa, UniProt K7GLT8+P80021); test: ATP hydrolysis (Pi release) with partially purified F1 at […] melatonin; IC50 from the mitochondrial Ca2+-activated F1FO-ATPase (K'i […]); assay type: biochemical
T2 construct: gene ATP5F1B; native whole F1FO-ATPase in frozen-thawed pig heart mitochondria; not purified F1
T2 sequence (K7GLT8 89-570): as the sequence (K7GLT8 89-570) above
T2 sequence (P80021 44-553): as the sequence (P80021 44-553) above
T2 sequence (A0A286ZYL7 23-168 partner): as the sequence (A0A286ZYL7 23-168 partner) above
T2 sequence (A5GFX4 2-51 partner): as the sequence (A5GFX4 2-51 partner) above
T2 sequence (Q2EN81 24-213 partner): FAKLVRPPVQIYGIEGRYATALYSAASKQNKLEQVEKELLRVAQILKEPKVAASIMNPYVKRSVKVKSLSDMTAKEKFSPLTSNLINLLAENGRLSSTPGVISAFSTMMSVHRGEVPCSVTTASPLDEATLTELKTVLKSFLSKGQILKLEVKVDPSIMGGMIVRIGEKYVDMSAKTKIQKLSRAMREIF
T2 sequence (Q35915 whole entry partner, the tested form may be a part): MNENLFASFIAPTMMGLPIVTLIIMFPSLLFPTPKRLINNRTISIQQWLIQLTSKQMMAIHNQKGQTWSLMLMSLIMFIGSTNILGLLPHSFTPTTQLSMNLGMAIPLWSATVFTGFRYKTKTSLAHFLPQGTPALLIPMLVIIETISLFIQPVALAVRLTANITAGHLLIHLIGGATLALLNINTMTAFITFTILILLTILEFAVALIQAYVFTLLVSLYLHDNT

Compound	ATP hydrolysis (Pi release) with partially purified F1, 75 μM NBD-Cl [1]	IC50 [2] [mM]
O=[N+]([O-])c1ccc(Cl)c2nonc12 [NBD-Cl]	F1-ATPase activity was insensitive to oligomycin and was inhibited by NBD-Cl.	
COc1ccc2[nH]cc(CCNC(C)=O)c2c1 [melatonin]		6.63 ± 2.33
